According to patent US20230302014A1, “USES OF GLUCOCORTICOID RECEPTOR (GR) ANTAGONIST AND ANDROGEN RECEPTOR (AR) DEGRADER COMBINATIONS” (ORIC Pharmaceuticals, Inc., priority 2020, published 2023):

Key:
[1] = tested on: AR target genes KLK3, KLK4, NKX3.1, FKBP5; assay: Target gene assay (RT-qPCR, R1881-induced AR target genes); assay type: cell-based, Human; conditions: 100 pM R1881, 24 hours post treatment
Procedure: (§1) 10,000 LNCaP and CWR22PC cells per well were plated in triplicate in poly-lysine coated 96-well plates (ThermoFisher#152039) in 200 µL of RPMI-1640 media supplemented with 10% charcoal-stripped serum. 24 hours later, cells were treated with 100 pM of R1881 and 8-point dilution for enzalutamide, ARD1 or ARD2 with concentrations ranging from 1 µM to 0.46 nM. After incubation at 37° C. for 24 hours, media was removed, and cells were washed once with PBS. 55 µL per well of iScript RT-qPCR sample preparation reagent (Bio-Rad #1708898) was added and incubated for 2 minutes before lysate was collected for mRNA analysis. RT-qPCR was set up in triplicate using 3 µL of lysate plus 7 µL of pre-mixed SensiFAST™ SYBR No-ROX One-Step Kit reagents (BIOLINE, Cat# BIO-98005) per reaction. The RT-qPCR reactions were run on a Bio-Rad CFX384 Real-Time PCR System and data was plotted with GraphPad Prism 8 software.
as §1, with “15,000” for “10,000”, “24 hours later, cells were treated with 100 pM of R1881 and 8-point dilution for enzalutamide, ARD1 or ARD2 with concentrations ranging from 1 µM to 0.46 nM.” left out, “75” for “55”

[2] = tested on: AR and/or GR target genes KLK4, KLF9, FKBP5, PER1, SGK1; assay: Biomarker analysis by RT-qPCR, 48 hours; assay type: cell-based, Human; conditions: CWR22PC and 22Rv1 cells
Procedure: CWR22PC and 22RV1 cells were seeded at a density of 2 × 10^5 cells/well in 6-well plates in 2 mL of RPMI-1640 media supplemented with 10% charcoal-stripped serum (CSS). Cells were treated with 100 pM R1881, 30 nM dexamethasone, 0.5 µM compound 1, 1 µM of ARD1 or ARD2, or combinations thereof as indicated and maintained at 37° C. 48 hours later, media was removed, and cells were washed once with PBS and then harvested for mRNA analysis.
(§2) Adherent cells or cell pellets harvested for mRNA analysis were first washed once with PBS and then resuspended in 600 µL of RLT lysis buffer (Qiagen Inc.) supplemented with 1% of betamercaptoethanol. RNA was extracted by QIAcube using the RNeasy Mini QIAcube kit (Qiagen#74116) according to manufacturer’s instructions. The extracted RNA samples were then quantified using a Nanodrop 8000 Spectrophotometer. RT-qPCR reactions were set up in triplicate using 3 µL of 3 ng/ µL of RNA in 7 µL of pre-mixed SensiFAST™ SYBR No-ROX One-Step Kit reagents (BIOLINE# BIO-98005). The RT-qPCR reactions were run on a Bio-Rad CFX384 Real-Time PCR System and data was plotted with GraphPad Prism 8 software.
CWR22PC and 22Rv1 cells were seeded at a density of 2 × 10^5 cells/well in 6-well plates in 2 mL of RPMI-1640 media supplemented with 10% charcoal-stripped serum (CSS). […] 48 hours later, media was removed, and cells were washed once with PBS and then harvested for mRNA analysis.

CWR22PC cells = assay: Cell growth (cell number) of prostate cancer cells under long-term treatment; assay type: cell-based, Human; conditions: CSS media; for R1881-induced cell growth: CWR22PC, + 0.5 µM compound 1
Procedure: (§3) CWR22PC cells were seeded at a density of 2 × 10^5 cells/well in 6-well plates (Corning# 3516) in 2 mL of RPMI-1640 media supplemented with 10% charcoal-stripped serum (CSS) in duplicate. 24 hours later, cells were treated with 100 pM R1881, 30 nM dexamethasone, 0.5 µM compound 1, 1 µM of ARD1 or ARD2, or combinations thereof as indicated. Fresh media containing the indicated treatment was replaced every 5-7 days. Cell supernatant was collected on Day 12 and 19 and stored at -80° C. for PSA AlphaLISA assay. Cell images were taken on Day 12 and 19 using Leica DMi8 microscope (LEICA MICROSYSTEMS, INC. IL) with a 10X magnification. Cells were then trypsinized and cell numbers in each treatment group were counted three times, average counts were plotted with GraphPad Prism 8. Cell pellets were washed once with 1XPBS and then lysed in 600 µL RLT RNA lysis buffer and stored at -80° C. RNA was extracted for end of study (EOS) biomarker analysis for which the detailed procedures are described in the section RNA Extraction and RT-qPCR analysis.
The impact of ARD1 and ARD2 on the growth of prostate cancer cells was explored. CWR22PC cells were plated in charcoal-stripped serum (CSS) media and treated with vehicle or 0.1 nM R1881 (synthetic AR ligand) without or with 1 µM of ARD1 or ARD2. Media with treatments were replaced every 5-7 days and cells were maintained at 37° C. for 22 days. Supernatant of each group was harvested at day 22 to measure PSA secretion by PSA AlphaLISA assays.
as §3, with “24 hours later, cells were treated with 100 pM R1881, 30 nM dexamethasone, 0.5 µM compound 1, 1 µM of ARD1 or ARD2, or combinations thereof as indicated.” left out, “15” for “12”, “21” for “19”, “assay.” for “assay. Cell images were taken on Day 12 and 19 using Leica DMi8 microscope (LEICA MICROSYSTEMS, INC. IL) with a 10X magnification.”

GR = biological target: T1, GR (Homo sapiens, UniProt P04150); conditions: prostate cancer models with GR upregulated, in response to glucocorticoids; Zhou et al. 2019; cited from earlier work
T1 sequence (P04150 1-777): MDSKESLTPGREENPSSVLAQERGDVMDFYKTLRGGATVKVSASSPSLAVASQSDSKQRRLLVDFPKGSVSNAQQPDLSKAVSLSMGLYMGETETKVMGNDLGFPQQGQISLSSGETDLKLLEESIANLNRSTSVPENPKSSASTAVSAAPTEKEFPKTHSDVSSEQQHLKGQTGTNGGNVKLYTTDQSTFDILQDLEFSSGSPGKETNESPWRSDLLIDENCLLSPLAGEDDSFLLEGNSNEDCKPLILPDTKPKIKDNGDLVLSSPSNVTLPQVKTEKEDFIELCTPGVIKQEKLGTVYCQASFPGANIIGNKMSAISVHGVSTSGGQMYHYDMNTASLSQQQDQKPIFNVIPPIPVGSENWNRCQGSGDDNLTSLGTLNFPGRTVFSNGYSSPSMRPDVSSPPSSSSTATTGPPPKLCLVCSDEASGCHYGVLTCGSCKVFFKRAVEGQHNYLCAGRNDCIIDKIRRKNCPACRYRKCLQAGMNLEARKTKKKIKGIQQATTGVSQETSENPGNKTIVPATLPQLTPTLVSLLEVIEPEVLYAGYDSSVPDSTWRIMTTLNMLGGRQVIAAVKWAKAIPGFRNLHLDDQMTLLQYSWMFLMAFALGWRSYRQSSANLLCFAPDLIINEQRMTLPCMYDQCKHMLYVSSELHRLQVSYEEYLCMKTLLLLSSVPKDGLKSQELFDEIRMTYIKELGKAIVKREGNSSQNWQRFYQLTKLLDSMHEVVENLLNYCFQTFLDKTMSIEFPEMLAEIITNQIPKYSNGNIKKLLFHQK

PSA = PSA AlphaLISA assay of cell supernatant (PSA secretion); assay type: cell-based, Human; conditions: CSS media; for R1881-induced PSA secretion: CWR22PC, + 0.5 µM compound 1
[3] = tested on: AR and GR target genes in CWR22PC cells; assay: End of study (EOS) biomarker analysis by RT-qPCR; assay type: cell-based, Human; conditions: CSS media, + 0.5 µM compound 1
Procedure: as §3, §2
CWR22PC cells were seeded at a density of 2 × 10^5 cells/well in 6-well plates (Corning# 3516) in 2 mL of RPMI-1640 media supplemented with 10% charcoal-stripped serum (CSS) in duplicate. […] Cells were then trypsinized and cell numbers in each treatment group were counted three times, average counts were plotted with GraphPad Prism 8. […]

[4] = 19 days, 0.1 nM R1881 + 1 µM ARD1 or ARD2, + 30 nM dexamethasone
[5] = 21 days, 0.1 nM R1881 + 1 µM ARV-110, + 30 nM dexamethasone

CNC(=O)c1ccc(N2C(=S)N(c3ccc(C#N)c(C(F)(F)F)c3)C(=O)C2(C)C)cc1F [Enzalutamide, enzalutamide]
AR target gene FKBP5 induced by R1881 ([1]; CWR22PC cells): inhibit
AR target gene KLK3 induced by R1881 ([1]; CWR22PC cells): inhibit
AR target gene KLK4 induced by R1881 ([1]; CWR22PC cells): inhibit
AR target gene NKX3.1 induced by R1881 ([1]; CWR22PC cells): inhibit
AR target gene FKBP5 induced by R1881 ([1]; LNCaP cells): inhibit
AR target gene KLK3 induced by R1881 ([1]; LNCaP cells): inhibit
AR target gene KLK4 induced by R1881 ([1]; LNCaP cells): inhibit
AR target gene NKX3.1 induced by R1881 ([1]; LNCaP cells): inhibit

CC(C)N(C)c1ccc([C@H]2C[C@@]3(C)[C@@H](CC[C@@]3(O)C#CC(C)(C)C)[C@@H]3CCC4=CC(=O)CC[C@@H]4[C@H]32)cc1 [Compound 1]
DEX-induced GR and AR target gene expression ([2]; 0.5 µM compound 1 in the presence of 1 µM ARD1 or ARD2, 0.1 nM R1881, 30 nM DEX): fully reverses
DEX-induced GR and AR target gene expression ([2]; 0.5 µM compound 1 in the presence of 1 µM ARV-110, 0.1 nM R1881, 30 nM DEX): fully reverses
R1881-induced cell growth (CWR22PC cells; [4]): fully reverses
R1881-induced cell growth (CWR22PC cells; [5]): fully reverses
sensitivity to enzalutamide treatment (GR): restores sensitivity to enzalutamide treatment
R1881-induced PSA secretion (PSA; [4]): fully reverses
R1881-induced PSA secretion (PSA; [5]): fully reverses
R1881-induced target gene (biomarker) expression ([3]; day 19 EOS, 0.1 nM R1881 + 1 µM ARD1 or ARD2, + 30 nM dexamethasone): fully reverses
R1881-induced target gene (biomarker) expression ([3]; day 21 EOS, 0.1 nM R1881 + 1 µM ARV-110, + 30 nM dexamethasone): fully reverses

C[C@]1(O)CC[C@H]2[C@@H]3CCC4=CC(=O)CCC4=C3C=C[C@@]21C [Compound R1881]
CWR22PC cell growth (CWR22PC cells; 0.1 nM R1881 without or with 1 µM ARD1 or ARD2, 22 days): promotes
PSA secretion (PSA; CWR22PC cells, 0.1 nM R1881 without or with 1 µM ARD1 or ARD2, day 22): promotes
